Assay [1] relates to Human pulmonary EC. Briefly: TER, Example 5. The class given is cell-based. As to conditions: MβCD or IM-7 antibody. The protocol: Measurement of TransEC Electrical Resistance (TER). EC were grown to confluence in polycarbonate wells containing evaporated gold microelectrodes, and TER measurements performed using an electrical cell-substrate impedance sensing system (Applied Biophysics, Troy, N.Y.) as previously described (Garcia et al., 2001). TER values from each microelectrode were pooled at discrete time points and plotted versus time as the mean±S.E.

Assay [2] deals with Rac1. Put plainly: Rac1 activation assay, HGF. The format is cell-based, human. As to conditions: 5 mM MβCD prior to 25 ng/ml HGF. The protocol:
Rac1 Activation Assay—Rac1 activity assays were performed as described (Ren et al., 1999) in human lung EC.

The test system of assay [3] is Human pulmonary microvascular EC (HPMVEC). Put plainly: EC electrical resistance (TER), HGF. The format is cell-based. Particulars: 5 mM MβCD 30 min prior to 25 ng/ml HGF. The protocol: Measurement of EC Electrical Resistance—EC were grown to confluence in polycarbonate wells containing evaporated gold microelectrodes, and TER measurements were performed using an electrical cell-substrate impedance sensing system obtained from Applied Biophysics (Troy, N.Y.) as described (Garcia et al., 2001). TER values from each microelectrode were pooled at discrete time points and plotted versus time as the mean±S.E.

The test system of assay [4] is Human pulmonary artery EC. Briefly: Transendothelial electrical resistance (TER) of HA-treated EC monolayers, Example 1. The format is cell-based. Particulars: 5 mM MβCD or 10 μg/ml anti-CD44 (IM-7) antibody, 100 nM High or Low MW HA. The method, then: Measurement of TransEC Electrical Resistance (TER)—EC were grown to confluence in polycarbonate wells containing evaporated gold microelectrodes. TER measurements were performed using an electrical cell-substrate impedance sensing system (Applied Biophysics, Troy, N.Y.) as described (Garcia et al., 2001). TER values from each microelectrode were pooled at discrete time points and plotted versus time as the mean±S.E.

Assay [5] deals with Human pulmonary artery EC. Put plainly: Cortical actin (phalloidin) staining and quantitation. The class given is cell-based. Particulars: MβCD one hour prior to 100 nM High MW HA for 30 min. The method, then: Immunofluorescence Microscopy and Cortical Actin Quantitation—Polymerized actin rearrangement was assessed first with Texas Red-conjugated phalloidin (Invitrogen (Molecular Probes), Eugene, Oreg.) and then analyzed using a Nikon Eclipse TE 300 microscope as described (Garcia et al., 2001). ImageQuant™ software (Amersham Biosciences Corp. (Piscataway, N.J.)) was used to analyze the computer recorded .tiff images. A standardized average grey value (SAGV) was generated for total phalloidin staining versus cortical phalloidin staining for each cell (Singleton et al., 2005). The following equation was used to calculate percent cortical actin staining: ((cortical actin SAGV×area) divided by (total actin SAGV×area))×100. At least ten cells per sample were analyzed. Experiments were performed in triplicate.
Immunofluorescence Microscopy. EC were serum-starved for one hour prior to the addition of 100 nM high MW HA. EC were then fixed in 4% paraformaldehyde, permeablized with ethanol and incubated with specific protein or interest primary antibody for 30 min followed by either FITC or Texas Red-conjugated secondary (Invitrogen (Molecular Probes), Eugene, Oreg.) and analyzed using a Nikon Eclipse TE 300 microscope as described (Garcia et. al., 2001).

Assay [6] concerns the target T1, Tiam1 (human, UniProt Q13009 2-1591, limits assumed).
T1 construct: Endogenous protein in CEM fractions; also called T-lymphoma invasion and metastasis gene 1
Put plainly: immunoprecipitation of dynamin 2 from CEM fractions of human EC, immunoblot with anti-Tiam1. The protocol:
Immunoprecipitation and Immunoblotting—Cellular materials from treated or untreated HPMVEC were incubated with IP buffer (50 mM HEPES (pH 7.5), 150 mM NaCl, 20 mM MgCl₂, 1% Nonidet P-40 (NP-40), 0.4 mM Na₃VO₄, 40 mM NaF, 50 μM okadaic acid, 0.2 mM phenylmethylsulfonyl fluoride, 1:250 dilution of Calbiochem protease inhibitor mixture 3). Following immunoprecipitation with either anti-CD44 or anti-dynamin 2 IgG, the samples were subjected to SDS-PAGE in 4-15% polyacrylamide gels, transferred onto Immobilon™ membranes, and developed with specific primary and secondary antibodies. Enhanced chemiluminescence (Amersham Biosciences) was used to visualize immunoreactive bands. In some instances, standardized average grey values (S.A.G.V., processed from ImageQuant™ software (Amersham Biosciences)) were obtained for immunoreactive bands for quantification.
Role of Tiam1, cortactin and dynamin 2 in HGF/c-Met-mediated human EC barrier enhancement. Since CD44 appears to regulate HGF-induced EC barrier enhancement (FIG. 12), whether Tiam1, cortactin and/or dynamin 2 were involved in HGF-induced increases in EC barrier integrity was examined. […] Silencing CD44 (siRNA) expression attenuated the HGF-induced recruitment of these molecules to CEM (FIG. 13-B); silencing either Tiam1 or dynamin 2 expression abolished cortactin localization to CEM (FIG. 14-A and -B). […]
For orientation: Immunoblotting shows a protein as a band on a membrane.

T1 sequence (Q13009 2-1591 limits assumed): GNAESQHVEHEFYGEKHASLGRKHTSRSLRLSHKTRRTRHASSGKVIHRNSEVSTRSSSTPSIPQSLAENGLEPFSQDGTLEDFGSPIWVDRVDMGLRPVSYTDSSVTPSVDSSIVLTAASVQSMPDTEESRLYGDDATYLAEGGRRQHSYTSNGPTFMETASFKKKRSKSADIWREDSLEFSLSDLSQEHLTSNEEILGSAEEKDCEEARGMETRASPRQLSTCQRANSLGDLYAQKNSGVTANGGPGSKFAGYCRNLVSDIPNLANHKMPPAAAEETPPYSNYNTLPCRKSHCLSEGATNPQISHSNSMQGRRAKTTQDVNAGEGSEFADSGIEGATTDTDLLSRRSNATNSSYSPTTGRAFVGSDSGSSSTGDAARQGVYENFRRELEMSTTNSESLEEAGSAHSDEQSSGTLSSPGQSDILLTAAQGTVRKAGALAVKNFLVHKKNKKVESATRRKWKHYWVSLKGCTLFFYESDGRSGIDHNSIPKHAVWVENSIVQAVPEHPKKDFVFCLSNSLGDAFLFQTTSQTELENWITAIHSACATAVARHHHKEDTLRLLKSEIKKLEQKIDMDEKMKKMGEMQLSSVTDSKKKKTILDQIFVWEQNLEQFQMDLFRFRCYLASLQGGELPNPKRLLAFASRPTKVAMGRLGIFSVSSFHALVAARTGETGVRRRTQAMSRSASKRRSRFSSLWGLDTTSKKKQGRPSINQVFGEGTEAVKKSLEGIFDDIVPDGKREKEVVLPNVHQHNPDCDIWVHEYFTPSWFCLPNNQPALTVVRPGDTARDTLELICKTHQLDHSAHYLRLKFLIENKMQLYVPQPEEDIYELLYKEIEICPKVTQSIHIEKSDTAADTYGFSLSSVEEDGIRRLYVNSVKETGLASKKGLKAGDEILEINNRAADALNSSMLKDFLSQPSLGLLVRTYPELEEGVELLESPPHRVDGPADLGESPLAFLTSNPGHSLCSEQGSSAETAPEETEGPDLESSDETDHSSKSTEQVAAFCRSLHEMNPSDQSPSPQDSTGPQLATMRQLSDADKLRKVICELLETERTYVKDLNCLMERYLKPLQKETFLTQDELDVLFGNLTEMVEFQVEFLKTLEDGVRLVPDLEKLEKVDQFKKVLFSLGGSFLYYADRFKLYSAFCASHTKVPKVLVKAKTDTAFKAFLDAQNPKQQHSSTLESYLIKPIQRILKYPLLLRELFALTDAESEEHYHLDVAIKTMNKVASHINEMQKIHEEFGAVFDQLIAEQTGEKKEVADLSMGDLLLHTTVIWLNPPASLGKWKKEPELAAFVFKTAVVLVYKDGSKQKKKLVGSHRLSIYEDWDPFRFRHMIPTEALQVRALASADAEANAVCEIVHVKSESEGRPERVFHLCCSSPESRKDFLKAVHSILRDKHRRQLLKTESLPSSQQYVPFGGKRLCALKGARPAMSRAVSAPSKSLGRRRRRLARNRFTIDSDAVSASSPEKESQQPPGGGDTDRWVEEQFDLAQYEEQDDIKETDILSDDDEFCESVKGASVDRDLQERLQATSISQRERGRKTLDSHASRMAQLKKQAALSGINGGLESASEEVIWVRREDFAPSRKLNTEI

methyl-β-cyclodextrin: the “inhibition of effects of HA on TER” value in assay [1] is “effects of HA on TER were inhibited”. Further, the “inhibition of HGF-induced Rac1 activation” value in assay [2] is reported as “inhibited HGF-induced Rac1 activation”. Further, in assay [3], the “inhibition of HGF-induced increases in EC barrier function (TER)” value was “attenuated HGF-induced increases in human EC barrier function”. Moreover, in assay [4], the “inhibition of HA-induced changes in TER” value is “abolished both HMW- and LMW-HA-induced changes in TER”. Moreover, in assay [5], the “inhibition of HMW-HA induced cortical actin reorganization” value was “HMW-HA induced cortical actin reorganization was inhibited”.

B1: dynamin 2 (other, human, UniProt P50570 1-870, looked up)
chain: MGNRGMEELIPLVNKLQDAFSSIGQSCHLDLPQIAVVGGQSAGKSSVLENFVGRDFLPRGSGIVTRRPLILQLIFSKTEHAEFLHCKSKKFTDFDEVRQEIEAETDRVTGTNKGISPVPINLRVYSPHVLNLTLIDLPGITKVPVGDQPPDIEYQIKDMILQFISRESSLILAVTPANMDLANSDALKLAKEVDPQGLRTIGVITKLDLMDEGTDARDVLENKLLPLRRGYIGVVNRSQKDIEGKKDIRAALAAERKFFLSHPAYRHMADRMGTPHLQKTLNQQLTNHIRESLPALRSKLQSQLLSLEKEVEEYKNFRPDDPTRKTKALLQMVQQFGVDFEKRIEGSGDQVDTLELSGGARINRIFHERFPFELVKMEFDEKDLRREISYAIKNIHGVRTGLFTPDLAFEAIVKKQVVKLKEPCLKCVDLVIQELINTVRQCTSKLSSYPRLREETERIVTTYIREREGRTKDQILLLIDIEQSYINTNHEDFIGFANAQQRSTQLNKKRAIPNQGEILVIRRGWLTINNISLMKGGSKEYWFVLTAESLSWYKDEEEKEKKYMLPLDNLKIRDVEKGFMSNKHVFAIFNTEQRNVYKDLRQIELACDSQEDVDSWKASFLRAGVYPEKDQAENEDGAQENTFSMDPQLERQVETIRNLVDSYVAIINKSIRDLMPKTIMHLMINNTKAFIHHELLAYLYSSADQSSLMEESADQAQRRDDMLRMYHALKEALNIIGDISTSTVSTPVPPPVDDTWLQSASSHSPTPQRRPVSSIHPPGRPPAVRGPTPGPPLIPVPVGAAASFSAPPIPSRPGPQSVFANSDLFPAPPQIPSRPVRIPPGIPPGVPSRRPPAAPSRPTIIRPAEPSLLD
notes: Immunoprecipitated with rabbit anti-dynamin 2 antibody from solubilized CEM fractions
Turning to B1, in assay [6], the binding result was “no binding”.

(Values after US20100249064A1, “METHODS AND COMPOSITIONS FOR TREATING DISEASES AND CONDITIONS INVOLVING HIGHER MOLECULAR WEIGHT HYALURONAN” (University of Chicago, priority 2007, published 2010).)
